According to patent US11965039B2, “Compstatin analogues and their medical uses” (priority 2018, dated 2024):
pIC50: −log10 of the molar value. Read-outs that look alike come from different tables or passages of the source. Starred links: 1 amine or outer side, 2 acyl side, 3 side chain; linkers in the order of their positions; H or OH if unused. Positions of bridges follow the written chain, without caps; N, C: chain ends. Non-standard residues stand in square brackets, D forms with d. Residues, ends and D or L forms follow the SMILES beside them. Groups on a side chain read outwards from the residue. *: point of attachment. Trp(1-Me) = Cn1cc(C[C@H](N)C(=O)O)c2ccccc21; C18 diacid = O=C(O)CCCCCCCCCCCCCCCCC(=O)*; γGlu = O=C(O)[C@H](CCC(=O)[*:2])N[*:1]; Sar = CNCC(=O)O

Experiments:
[1] = test system: classical complement pathway; experiment: In vitro haemolysis assay (inhibition of classical complement pathway); assay type: cell-based, human; conditions: human serum, sensitized sheep red blood cells
Summary of the method: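 Compound dilutions preincubated 15 min at room temperature with diluted human serum (titrated per batch for 70-90% maximal haemolysis), then antibody-sensitized sheep RBC (10^7/well) added for 30 min at 37 °C in Tris/casein buffer, pH 7.4. Stopped with EDTA; haemolysis read at 405 nm; IC50 by 4PL fit.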

[2] = Solubility test at 10 mg/mL (visual inspection and light scattering); assay type: physicochemical
[3] = Table 3, given as upper bounds, read-out: IC50, inhibition of hemolysis

| Solubility, condition 4 ([2]; Phosphate pH 7) | Solubility, condition 5 ([2]; Phosphate pH 7.5) | Solubility, Condition 1 ([2]; acetate pH 4.0, visual inspection and absorbance) | Solubility, Condition 2 ([2]; acetate pH 5.0, visual inspection and absorbance) | Solubility, Condition 3 ([2]; phosphate pH 6.0, visual inspection and absorbance) | Compound | pIC50 [1, 3] | Solubility, Condition 1 ([2]; Acetate pH 4) | Solubility, Condition 2 ([2]; Acetate pH 5) | Solubility, Condition 3 ([2]; Phosphate pH 6) | Solubility, Condition 4 ([2]; Phosphate pH 7) | Solubility, Condition 5 ([2]; Phosphate pH 7.5) | pIC50 ([1]; Table 4, valine 3 vs isoleucine 3 pairs, read-out: CP hemolysis IC50) |
| --- | --- | --- | --- | --- | --- | --- | --- | --- | --- | --- | --- | --- |
| – | – | – | – | – | CC[C@H](C)[C@@H]1NC(=O)[C@@H](NC(=O)[C@H](Cc2ccccc2)NC(=O)[C@H](CCC(=O)O)NC(=O)[C@H](CO)NC(C)=O)CSSC[C@@H](C(=O)N(C)CC(=O)N[C@@H](CCC(=O)O)C(N)=O)NC(=O)[C@H](CCCNC(=N)N)NC(=O)[C@H](Cc2c[nH]cn2)NC(=O)[C@H](CCC(=O)O)NC(=O)CNC(=O)[C@H](Cc2c[nH]c3ccccc23)NC(=O)[C@H](CC(=O)O)NC(=O)[C@H](CCC(N)=O)NC(=O)[C@H](Cc2cn(C)c3ccccc23)NC1=O [Compound 78] (Ac-SEFCI[Trp(1-Me)]QDWGEHRC[Sar]E-NH2; disulfide 4-14) | > 7.00 | − (“−” denotes lack of solubility at the given condition, as UV absorbance at 340 nm exceeds 0.1 AU and/or it is visibly turbid or contains particles) | − (“−” denotes lack of solubility at the given condition, as UV absorbance at 340 nm exceeds 0.1 AU and/or it is visibly turbid or contains particles) | + (“+” denotes solubility at the given condition, as determined by UV absorbance being less than 0.1 AU at 340 nm and the sample being clear when manually inspected) | + (“+” denotes solubility at the given condition, as determined by UV absorbance being less than 0.1 AU at 340 nm and the sample being clear when manually inspected) | + (“+” denotes solubility at the given condition, as determined by UV absorbance being less than 0.1 AU at 340 nm and the sample being clear when manually inspected) | – |
| – | – | – | – | – | CC[C@H](C)[C@@H]1NC(=O)[C@@H](NC(=O)[C@H](Cc2ccc(O)cc2)NC(C)=O)CSSC[C@@H](C(=O)N[C@H](C(=O)NCC(=O)N[C@@H](C)C(=O)N[C@@H](CCC(=O)O)C(=O)N[C@@H](CO)C(N)=O)[C@@H](C)O)NC(=O)[C@H](CCCNC(=N)N)NC(=O)[C@H](Cc2c[nH]cn2)NC(=O)[C@H](CCC(=O)O)NC(=O)CNC(=O)[C@H](Cc2c[nH]c3ccccc23)NC(=O)[C@H](CC(=O)O)NC(=O)[C@H](CCC(N)=O)NC(=O)[C@H](Cc2cn(C)c3ccccc23)NC1=O [Compound 62] (Ac-YCI[Trp(1-Me)]QDWGEHRCTGAES-NH2; disulfide 2-12) | > 7.00 | − (“−” denotes lack of solubility at the given condition, as UV absorbance at 340 nm exceeds 0.1 AU and/or it is visibly turbid or contains particles) | − (“−” denotes lack of solubility at the given condition, as UV absorbance at 340 nm exceeds 0.1 AU and/or it is visibly turbid or contains particles) | + (“+” denotes solubility at the given condition, as determined by UV absorbance being less than 0.1 AU at 340 nm and the sample being clear when manually inspected) | + (“+” denotes solubility at the given condition, as determined by UV absorbance being less than 0.1 AU at 340 nm and the sample being clear when manually inspected) | + (“+” denotes solubility at the given condition, as determined by UV absorbance being less than 0.1 AU at 340 nm and the sample being clear when manually inspected) | – |
| good | good | cloudy | cloudy | cloudy | CC[C@H](C)[C@H](NC(C)=O)C(=O)N[C@H]1CSSC[C@@H](C(=O)N[C@H](C(=O)N[C@@H](CCC(=O)O)C(=O)NCC(=O)N[C@@H](CCC(=O)O)C(N)=O)[C@@H](C)O)NC(=O)[C@H](CCCNC(=N)N)NC(=O)[C@H](Cc2c[nH]cn2)NC(=O)[C@H](CCC(=O)O)NC(=O)CNC(=O)[C@H](Cc2c[nH]c3ccccc23)NC(=O)[C@H](CC(=O)O)NC(=O)[C@H](CCC(N)=O)NC(=O)[C@H](Cc2c[nH]c3ccccc23)NC(=O)[C@H]([C@@H](C)CC)NC1=O [Compound 24] (Ac-ICIWQDWGEHRCTEGE-NH2; disulfide 2-12) | > 7.00 | − (“−” denotes lack of solubility at the given condition, as UV absorbance at 340 nm exceeds 0.1 AU and/or it is visibly turbid or contains particles) | − (“−” denotes lack of solubility at the given condition, as UV absorbance at 340 nm exceeds 0.1 AU and/or it is visibly turbid or contains particles) | − (“−” denotes lack of solubility at the given condition, as UV absorbance at 340 nm exceeds 0.1 AU and/or it is visibly turbid or contains particles) | + (“+” denotes solubility at the given condition, as determined by UV absorbance being less than 0.1 AU at 340 nm and the sample being clear when manually inspected) | + (“+” denotes solubility at the given condition, as determined by UV absorbance being less than 0.1 AU at 340 nm and the sample being clear when manually inspected) | 7.05 |
| – | – | – | – | – | CC[C@H](C)[C@H](NC(=O)[C@H](C)NC(=O)[C@H](CO)NC(=O)CNC(C)=O)C(=O)N[C@H]1CSSC[C@@H](C(=O)N(C)CC(=O)N[C@@H](CCC(=O)O)C(N)=O)NC(=O)[C@H](CCCNC(=N)N)NC(=O)[C@H](Cc2c[nH]cn2)NC(=O)[C@H](CCC(=O)O)NC(=O)CNC(=O)[C@H](Cc2c[nH]c3ccccc23)NC(=O)[C@H](CC(=O)O)NC(=O)[C@H](CCC(N)=O)NC(=O)[C@H](Cc2c[nH]c3ccccc23)NC(=O)[C@H]([C@@H](C)CC)NC1=O [Compound 40] (Ac-GSAICIWQDWGEHRC[Sar]E-NH2; disulfide 5-15) | > 6.60 | − (“−” denotes lack of solubility at the given condition, as UV absorbance at 340 nm exceeds 0.1 AU and/or it is visibly turbid or contains particles) | − (“−” denotes lack of solubility at the given condition, as UV absorbance at 340 nm exceeds 0.1 AU and/or it is visibly turbid or contains particles) | + (“+” denotes solubility at the given condition, as determined by UV absorbance being less than 0.1 AU at 340 nm and the sample being clear when manually inspected) | + (“+” denotes solubility at the given condition, as determined by UV absorbance being less than 0.1 AU at 340 nm and the sample being clear when manually inspected) | + (“+” denotes solubility at the given condition, as determined by UV absorbance being less than 0.1 AU at 340 nm and the sample being clear when manually inspected) | – |
| – | – | – | – | – | CC[C@H](C)[C@@H]1NC(=O)[C@@H](NC(=O)[C@H](Cc2ccc(O)cc2)NC(=O)[C@H](CCC(=O)O)NC(=O)[C@H](CO)NC(C)=O)CSSC[C@@H](C(=O)N(C)CC(=O)N[C@@H](CCC(=O)O)C(=O)NCC(=O)N[C@@H](CCC(=O)O)C(=O)N[C@@H](CCCCNC(=O)CC[C@H](NC(=O)CNC(=O)CC[C@H](NC(=O)CCCCCCCCCCCCCCCCC(=O)O)C(=O)O)C(=O)O)C(N)=O)NC(=O)[C@H](CCCNC(=N)N)NC(=O)[C@H](Cc2c[nH]cn2)NC(=O)[C@H](CCC(=O)O)NC(=O)CNC(=O)[C@H](Cc2c[nH]c3ccccc23)NC(=O)[C@H](CC(=O)O)NC(=O)[C@H](CCC(N)=O)NC(=O)[C@H](Cc2cn(C)c3ccccc23)NC1=O [Compound 114] (Ac-SEYCI[Trp(1-Me)]QDWGEHRC[Sar]EGEK([γGlu-Gly-γGlu-C18 diacid])-NH2; disulfide 4-14) | > 6.30 | + (“+” denotes solubility at the given condition, as determined by UV absorbance being less than 0.1 AU at 340 nm and the sample being clear when manually inspected) | + (“+” denotes solubility at the given condition, as determined by UV absorbance being less than 0.1 AU at 340 nm and the sample being clear when manually inspected) | + (“+” denotes solubility at the given condition, as determined by UV absorbance being less than 0.1 AU at 340 nm and the sample being clear when manually inspected) | + (“+” denotes solubility at the given condition, as determined by UV absorbance being less than 0.1 AU at 340 nm and the sample being clear when manually inspected) | + (“+” denotes solubility at the given condition, as determined by UV absorbance being less than 0.1 AU at 340 nm and the sample being clear when manually inspected) | – |
| – | – | – | – | – | CC[C@H](C)[C@@H]1NC(=O)[C@@H](NC(=O)[C@H](Cc2ccccc2)NC(=O)[C@H](CCC(=O)O)NC(C)=O)CSSC[C@@H](C(=O)N(C)CC(=O)N[C@@H](CCC(=O)O)C(=O)N[C@@H](C)C(N)=O)NC(=O)[C@H](CCCNC(=N)N)NC(=O)[C@H](Cc2c[nH]cn2)NC(=O)[C@H](CCC(=O)O)NC(=O)CNC(=O)[C@H](Cc2c[nH]c3ccccc23)NC(=O)[C@H](CC(=O)O)NC(=O)[C@H](CCC(N)=O)NC(=O)[C@H](Cc2cn(C)c3ccccc23)NC1=O [Compound 80] (Ac-EFCI[Trp(1-Me)]QDWGEHRC[Sar]EA-NH2; disulfide 3-13) | > 7.00 | − (“−” denotes lack of solubility at the given condition, as UV absorbance at 340 nm exceeds 0.1 AU and/or it is visibly turbid or contains particles) | − (“−” denotes lack of solubility at the given condition, as UV absorbance at 340 nm exceeds 0.1 AU and/or it is visibly turbid or contains particles) | + (“+” denotes solubility at the given condition, as determined by UV absorbance being less than 0.1 AU at 340 nm and the sample being clear when manually inspected) | + (“+” denotes solubility at the given condition, as determined by UV absorbance being less than 0.1 AU at 340 nm and the sample being clear when manually inspected) | + (“+” denotes solubility at the given condition, as determined by UV absorbance being less than 0.1 AU at 340 nm and the sample being clear when manually inspected) | – |
